Read-outs that look alike come from different tables or passages of the source.
Assay: Pharmacokinetics of acetate of Compound 22 in SD rats with single and repeated administration
Assay type: in vivo
Conditions: Sprague-Dawley, rat, plasma; for AUC(0-t): read-out: AUC0-t; for Cmax: read-out: Cmax; for half-life: read-out: T1/2 (converted); for Tmax: read-out: Tmax (median)
Protocol: The formulation for Group 5 was prepared before administration on Day 1, and then, divided into daily doses and stored at 5±3° C. After taking out the formulations on the day of administration, the formulations should be let stand at room temperature for at least 30 minutes before administration.
After blood collection, the blood collection tube containing the anticoagulant was turned upside down several times to mix well, and placed on wet ice before centrifugation. Within 60 minutes after blood collection, the samples were centrifuged at 2000 g for 10 minutes at 2-8° C. to separate red blood cells, thereby obtaining plasma samples. The plasma samples were transferred to cryovials and stored at −75±15° C. until analysis.
Blood samples were collected from SD rats at room temperature before administration and within 24 hours after administration. All collected samples were placed on wet ice before centrifugation and stored at −75±15° C. until analysis.
The mass spectrometer was Applied Biosystems/AB Sciex Triple Quad 4500.
Pharmacokinetic data was calculated using the linear logarithmic trapezoidal method, with a weight of 1/(Y*Y). Samples with the sample concentration below the lower limit of quantification were excluded from the calculation of pharmacokinetic parameters. […] The mean time to peak (Tmax) was represented as a median.

[1] = both sexes, po, 63 mg/kg, Group 5 PO 63 mg/kg repeated, Day 7, Overall
[2] = both sexes, po, 189 mg/kg, Group 4 PO 189 mg/kg single, Overall
[3] = female, iv, 2 mg/kg, Group 1 IV 2.0 mg/kg single, Female
[4] = female, po, 21 mg/kg, Group 2 PO 21 mg/kg single, Female
[5] = female, po, 63 mg/kg, Group 3 PO 63 mg/kg single, Female
[6] = female, po, 63 mg/kg, Group 5 PO 63 mg/kg repeated, Day 1, Female
[7] = female, po, 63 mg/kg, Group 5 PO 63 mg/kg repeated, Day 7, Female
[8] = female, po, 189 mg/kg, Group 4 PO 189 mg/kg single, Female
[9] = male, iv, 2 mg/kg, Group 1 IV 2.0 mg/kg single, Male
[10] = male, po, 21 mg/kg, Group 2 PO 21 mg/kg single, Male
[11] = male, po, 63 mg/kg, Group 3 PO 63 mg/kg single, Male
[12] = male, po, 63 mg/kg, Group 5 PO 63 mg/kg repeated, Day 1, Male
[13] = male, po, 63 mg/kg, Group 5 PO 63 mg/kg repeated, Day 7, Male
[14] = male, po, 189 mg/kg, Group 4 PO 189 mg/kg single, Male

`CC(=O)O.Nc1nc(NCCc2ccc(NC3COC3)cc2)nc2nc(-c3ccco3)nn12` [Acetate of Compound 22, 2-(furan-2-yl)-N5-(4-(oxetane-3-ylamino)phenethyl)-[1,2,4]triazolo[1,5-a][1,3,5]triazine-5,7-diamine acetate] showed an AUC(0-t) [1] of 127 ± 40.7 µg·h/mL, a Cmax [1] of 38300 ± 8840 ng/mL and a half-life [1] of 3.21 ± 0.615 h. For the same compound, the Tmax [1] was 1 h, the AUC(0-t) [2] was 241 ± 39.1 µg·h/mL and the Cmax [2] was 51800 ± 11800 ng/mL. It also gave a half-life [2] of 5.26 ± 3.05 h, a Tmax [2] of 2 h and an AUC(0-t) [3] of 5.85 ± 0.149 µg·h/mL. For the same compound, the half-life [3] was 4.7 ± 3.22 h, the AUC(0-t) [4] was 43.5 ± 4.15 µg·h/mL and the Cmax [4] was 20100 ± 3860 ng/mL. For the same compound, the half-life [4] was 3.73 ± 0.771 h, the Tmax [4] was 0.5 h and the AUC(0-t) [5] was 137 ± 40.4 µg·h/mL. For the same compound, the Cmax [5] was 30500 ± 9710 ng/mL, the half-life [5] was 2.91 ± 0.949 h and the Tmax [5] was 1 h. For the same compound, the AUC(0-t) [6] was 142 ± 23.1 µg·h/mL, the Cmax [6] was 37700 ± 2380 ng/mL and the half-life [6] was 2.4 ± 0.523 h. For the same compound, the Tmax [6] was 2 h, the AUC(0-t) [7] was 157 ± 36.9 µg·h/mL and the Cmax [7] was 45600 ± 1550 ng/mL. For the same compound, the half-life [7] was 2.73 ± 0.359 h, the Tmax [7] was 1 h and the AUC(0-t) [8] was 248 ± 55.6 µg·h/mL. For the same compound, the Cmax [8] was 59600 ± 12100 ng/mL, the half-life [8] was 7.63 h and the Tmax [8] was 1 h. The AUC(0-t) [9] was 4.87 ± 0.601 µg·h/mL, the half-life [9] was 1.43 h and the AUC(0-t) [10] was 42 ± 10.5 µg·h/mL. For the same compound, the Cmax [10] was 16600 ± 4100 ng/mL, the half-life [10] was 3.21 ± 0.304 h and the Tmax [10] was 0.5 h. The AUC(0-t) [11] was 87.3 ± 3.04 µg·h/mL, the Cmax [11] was 24200 ± 2340 ng/mL and the half-life [11] was 3.1 ± 0.251 h. For the same compound, the Tmax [11] was 1 h, the AUC(0-t) [12] was 79.7 ± 31.5 µg·h/mL and the Cmax [12] was 19900 ± 9080 ng/mL. For the same compound, the half-life [12] was 4.26 ± 2.04 h, the Tmax [12] was 1 h and the AUC(0-t) [13] was 98.1 ± 14.7 µg·h/mL. For the same compound, the Cmax [13] was 31000 ± 5750 ng/mL, the half-life [13] was 3.69 ± 0.342 h and the Tmax [13] was 1 h. For the same compound, the AUC(0-t) [14] was 235 ± 24.3 µg·h/mL, the Cmax [14] was 44100 ± 4710 ng/mL and the half-life [14] was 3.68 ± 1.22 h. The Tmax [14] was 4 h.
